Laboratory results taken from patent publication US20240245711A1, “A 19-NOR C3,3-DISUBSTITUTED C21-N-PYRAZOLYL STEROID FOR THE TREATMENT OF MAJOR DEPRESSIVE DISORDER” (Sage Therapeutics, Inc., priority 2021, published 2024).
“And” between values parts separate entries of the source, which are not always exact repeats. Equal values may be shown once.

Test system: adult subjects with Major Depressive Disorder
Experiment: Phase 3 open-label 1-year study: HAM-D total score, response and remission
Format: in vivo, human
Conditions: for HAM-D Total Score, Mean Percent Change from Period-Specific Baseline / HAM-D Total Score, Mean Change from Period-Specific Baseline: Low Dose Cohort (FAS); for HAM-D Remission / HAM-D Response / HAM-D total score, Mean % CFB ± SD / HAM-D total score, Mean CFB ± SD: Study Period 1, safety set, 30 mg Cohort (N = 725)
Description: Secondary Objective: To assess the need for re-treatment with Compound (1) following initial treatment in adults with MDD currently experiencing an MDE over a 1-year period, and to assess the response of initial treatment and re-treatment(s) with Compound (1) following an initial 2-week treatment period in adults with MDD currently experiencing an MDE over a 1-year period.
Secondary Endpoints: The need for re-treatment with Compound (1) as assessed by: time to first re-treatment (Kaplan-Meier curves), number of subjects achieving the requirements for re-treatment, number of re-treatment cycles for each subject, the response of initial treatment and/or re-treatment as assessed by: change from baseline in the 17-item Hamilton Rating Scale for Depression (HAM-D) total score at the end of each 14-day treatment (initial and/or re-treatment) period, HAM-D response at the end of each 14-day treatment (initial and/or re-treatment) period, defined as a ≥50% reduction in HAM-D score from baseline, HAM-D remission at the end of each 14-day treatment (initial and/or re-treatment) period, defined as HAM-D total score≤7, Clinical Global Impression-Improvement (CGI-I) response, defined as “much improved” or “very much improved”, at the end of each 14-day treatment (initial and/or re-treatment) period, change from baseline in Clinical Global Impression-Severity (CGI-S) score at the end of each 14-day treatment (initial and/or re-treatment) period.
Study Population: Subjects were 18-75 years old, diagnosed with major depressive disorder (MDD) with a MADRS total score of ≥28 and a HAM-D total score of ≥20 at Screening and Day 1 (prior to dosing).
Treatment Groups: The 30 mg and 50 mg dose groups were separated by time of enrollment. The study is comprised of two cohorts: one with Compound (1) 30 mg as a starting dose (30 mg Cohort: n=725), an initial cohort with Compound (1) 50 mg as a starting dose (50 mg Cohort: n=199). A patient receiving Compound (1) 30 mg could be dose reduced to 20 mg and patients receiving Compound (1) 50 mg could be dose reduced to 40 mg (based on tolerability). In all cohorts, Compound (1) is self-administered by patients as an oral therapy once nightly with food for 14 days.
Eligible subjects were given Compound (1)—to be taken at home in the evening with meal.
The cohorts pertaining to the different doses that the subjects received were defined as following: • 50 mg cohort: This cohort includes subjects who have initiated treatment with 50 mg and received re-treatment with 50 mg only. • 30 mg cohort: This cohort includes subjects who have initiated treatment with 30 mg regardless of the dose they have received in re-treatments. • Low dose cohort: This cohort includes subjects who have initiated treatment with 30 mg and received re-treatment with 30 mg only. • Dose switch cohort: This cohort includes subjects who have received initial treatment with 30 mg and at least one subsequent re-treatment with 50 mg. • Study Period X: starts on the date of the first dose of Compound (1) in cycle X and goes up to one day prior to the first dose of the next cycle. In some embodiments, X is any number from 1 to 5. • Treatment Period X: starts on the date of the first dose of Compound (1) in cycle X and goes up to one day after the last dose in cycle X. In some embodiments, X is any number from 1 to 5. • Treatment Cycle X: starts on the date of the first dose of Compound (1) in cycle X and goes up to 14 days after the last dose in cycle X. The treatment cycles may be denoted as C1-C5. • Observation period X: starts the day after Treatment Cycle X ends and goes up to one day prior to the start of next treatment cycle. In some embodiments, X is any number from 1 to 5.
Analysis Sets: The safety set was defined as all subjects who were administered study drug. The period-specific safety set includes subjects in the safety set who were administered study drug in the corresponding treatment cycle. […]

[1] = subjects dosed in Cycle 4 (43), Cycle 1, Day 28
[2] = subjects dosed in Cycle 4 (43), Cycle 2, Day 15
[3] = subjects dosed in Cycle 4 (43), Cycle 2, Day 28
[4] = subjects dosed in Cycle 4 (43), Cycle 3, Day 15
[5] = subjects dosed in Cycle 4 (43), Cycle 3, Day 28
[6] = subjects dosed in Cycle 4 (43), Cycle 4, Day 15
[7] = subjects dosed in Cycle 4 (43), Cycle 4, Day 28
[8] = subjects dosed in Cycle 5 (20), Cycle 1, Day 15
[9] = subjects dosed in Cycle 5 (20), Cycle 1, Day 28
[10] = subjects dosed in Cycle 5 (20), Cycle 2, Day 15
[11] = subjects dosed in Cycle 5 (20), Cycle 2, Day 28
[12] = subjects dosed in Cycle 5 (20), Cycle 3, Day 15
[13] = subjects dosed in Cycle 5 (20), Cycle 3, Day 28
[14] = subjects dosed in Cycle 5 (20), Cycle 4, Day 15
[15] = subjects dosed in Cycle 5 (20), Cycle 4, Day 28
[16] = subjects dosed in Cycle 5 (20), Cycle 5, Day 28

## C[C@@]1(O)CC[C@H]2[C@H](CC[C@@H]3[C@@H]2CC[C@]2(C)[C@@H](C(=O)Cn4cc(C#N)cn4)CC[C@@H]32)C1 [Compound (1), 1-(2-((3R,5R,8R,9R,10S,13S,14S,17S)-3-hydroxy-3,13-dimethylhexadecahydro-1H-cyclopenta[a]phenanthren-17-yl)-2-oxoethyl)-1H-pyrazole-4-carbonitrile]
Subjects dosed in Cycle 4 (43), Cycle 1, Day 15
  HAM-D Total Score, Mean Percent Change from Period-Specific Baseline: −68.2
[1]
  HAM-D Total Score, Mean Change from Period-Specific Baseline: −13.0
  HAM-D Total Score, Mean Percent Change from Period-Specific Baseline: −52.0
[2]
  HAM-D Total Score, Mean Change from Period-Specific Baseline: −12.1
  HAM-D Total Score, Mean Percent Change from Period-Specific Baseline: −49.6
[3]
  HAM-D Total Score, Mean Change from Period-Specific Baseline: −10.4
  HAM-D Total Score, Mean Percent Change from Period-Specific Baseline: −42.4
[4]
  HAM-D Total Score, Mean Change from Period-Specific Baseline: −12.7
  HAM-D Total Score, Mean Percent Change from Period-Specific Baseline: −54.1
[5]
  HAM-D Total Score, Mean Change from Period-Specific Baseline: −11.1
  HAM-D Total Score, Mean Percent Change from Period-Specific Baseline: −46.9
[6]
  HAM-D Total Score, Mean Change from Period-Specific Baseline: −11.7
  HAM-D Total Score, Mean Percent Change from Period-Specific Baseline: −50.0
[7]
  HAM-D Total Score, Mean Change from Period-Specific Baseline: −9.9
  HAM-D Total Score, Mean Percent Change from Period-Specific Baseline: −41.9
[8]
  HAM-D Total Score, Mean Change from Period-Specific Baseline: −16.5
  HAM-D Total Score, Mean Percent Change from Period-Specific Baseline: −66.9
[9]
  HAM-D Total Score, Mean Change from Period-Specific Baseline: −11.3
  HAM-D Total Score, Mean Percent Change from Period-Specific Baseline: −45.7
[10]
  HAM-D Total Score, Mean Change from Period-Specific Baseline: −11.1
  HAM-D Total Score, Mean Percent Change from Period-Specific Baseline: −45.1
[11]
  HAM-D Total Score, Mean Change from Period-Specific Baseline: −9.2
  HAM-D Total Score, Mean Percent Change from Period-Specific Baseline: −37.8
[12]
  HAM-D Total Score, Mean Change from Period-Specific Baseline: −11.9
  HAM-D Total Score, Mean Percent Change from Period-Specific Baseline: −51.5
[13]
  HAM-D Total Score, Mean Change from Period-Specific Baseline: −10.7
  HAM-D Total Score, Mean Percent Change from Period-Specific Baseline: −46.1
[14]
  HAM-D Total Score, Mean Change from Period-Specific Baseline: −11.6
  HAM-D Total Score, Mean Percent Change from Period-Specific Baseline: −48.9
[15]
  HAM-D Total Score, Mean Change from Period-Specific Baseline: −7.7
  HAM-D Total Score, Mean Percent Change from Period-Specific Baseline: −32.6
Subjects dosed in Cycle 5 (20), Cycle 5, Day 15
  HAM-D Total Score, Mean Change from Period-Specific Baseline: 17, −11.6/—
[16]
  HAM-D Total Score, Mean Change from Period-Specific Baseline: −7.1
  HAM-D Total Score, Mean Percent Change from Period-Specific Baseline: −30.6
Low Dose Cohort (n = 645)
  Withdrawn in Treatment Cycle 1: Exit for non-response, n (%): 146 (22.6%)
Day 8
  HAM-D Remission: (17.8%)
  HAM-D Response: 295/704 (41.9%)
  HAM-D total score, Mean % CFB ± SD: −42.9 ± 25.68%
  HAM-D total score, Mean CFB ± SD: −10.9 ± 6.75
Day 15
  HAM-D total score, Mean % CFB ± SD: −60.0 ± 25.61%
  HAM-D total score, Mean CFB ± SD: −15.2±7.1 and −15.2 ± 7.07
Day 28
  HAM-D Remission: (32.6%)
  HAM-D Response: 372/681 (54.6%)
  HAM-D total score, Mean % CFB ± SD: −51.9 ± 29.96%
  HAM-D total score, Mean CFB ± SD: −13.3 ± 8.07
Day 70
  HAM-D Remission: (30.0%)
  HAM-D Response: 193/384 (50.3%)
  HAM-D total score, Mean % CFB ± SD: −46.6 ± 34.25%
  HAM-D total score, Mean CFB ± SD: −12.1 ± 9.12
Day 126
  HAM-D Remission: (47.3%)
